Usually EC50 stands for the concentration needed to bring the measured effect to its halfway point.

For the first experiment, the system named is SARS-CoV-2 strain USA-WA1/2020. The experiment in a line: microbe, parasite or virus in culture. The class given is cell-based. The following applies: Severe acute respiratory syndrome coronavirus 2, HeLa-ACE2, 24 h, HeLa-ACE2 cells, SARS-CoV-2 infection, 24 h; cells given as a bound; read-out: EC50, uM (Hela).
As for `CC(C)C[C@H](NC(=O)C(=O)Nc1ccccc1F)C(=O)N[C@@H](C[C@@H]1CCNC1=O)C(=O)COC(C(F)F)C(F)F` [Compound 175, N1-(2-fluorophenyl)-N2-((S)-4-methyl-1-oxo-1-(((S)-3-oxo-1-((S)-2-oxopyrrolidin-3-yl)-4-((1,1,3,3-tetrafluoropropan-2-yl)oxy)butan-2-yl)amino)pentan-2-yl)oxalamide], the EC50 is above 1 µM. Consider `COc1cccc2[nH]c(C(=O)N[C@@H](CC(C)C)C(=O)N[C@@H](C[C@@H]3CCNC3=O)C(=O)COC(C(F)F)C(F)F)cc12` [Compound 178, 4-methoxy-N-((S)-4-methyl-1-oxo-1-(((S)-3-oxo-1-((S)-2-oxopyrrolidin-3-yl)-4-((1,1,3,3-tetrafluoropropan-2-yl)oxy)butan-2-yl)amino)pentan-2-yl)-1H-indole-2-carboxamide], for which the EC50 is above 1 µM.

Staying with this experiment, now noted: Severe acute respiratory syndrome coronavirus 2, HeLa-ACE2, 24 h, HeLa-ACE2 cells, SARS-CoV-2 infection, 24 h; class symbols; read-out: EC50, uM (Hela).
Turning to `CC(C)(C)C[C@H](NC(=O)C(=O)NC(C)(C)C)C(=O)N[C@@H](C[C@@H]1CCNC1=O)C(=O)COC(F)(F)F` [Compound 172, N1-(tert-butyl)-N2-((S)-4,4-dimethyl-1-oxo-1-(((S)-3-oxo-1-((S)-2-oxopyrrolidin-3-yl)-4-(trifluoromethoxy)butan-2-yl)amino)pentan-2-yl)oxalamide], the EC50 was below 0.05 µM. On the same count and under the same terms, then `CC(C)(C)C[C@H](NC(=O)C(=O)Nc1ccccc1C(C)(C)C)C(=O)N[C@@H](C[C@@H]1CCNC1=O)C(=O)COC(F)(F)F` [Compound 173, N1-(2-(tert-butyl)phenyl)-N2-((S)-4,4-dimethyl-1-oxo-1-(((S)-3-oxo-1-((S)-2-oxopyrrolidin-3-yl)-4-(trifluoromethoxy)butan-2-yl)amino)pentan-2-yl)oxalamide], with below 0.05 µM. On the same count and under the same terms, the figure for `CC(C)C[C@H](NC(=O)C(=O)NC1CC1)C(=O)N[C@@H](C[C@@H]1CCNC1=O)C(=O)COC(F)(F)F` [Compound 174, N1-cycl opropyl-N2-((S)-4-methyl-1-oxo-1-(((S)-3-oxo-1-((S)-2-oxopyrrolidin-3-yl)-4-(trifluoromethoxy)butan-2-yl)amino)pentan-2-yl)oxalamide] is below 0.05 µM; for `O=C(NC1CC(F)(F)C1)C(=O)N[C@@H](CC1CC1)C(=O)N[C@@H](C[C@@H]1CCNC1=O)C(=O)COC(F)(F)F` [Compound 176, N1-((S)-3-cyclopropyl-1-oxo-1-(((S)-3-oxo-1-((S)-2-oxopyrrolidin-3-yl)-4-(trifluoromethoxy)butan-2-yl)amino)propan-2-yl)-N2-(3,3-difluorocyclobutyl)-oxalamide] it is below 0.05 µM. As for `COCc1ccccc1NC(=O)C(=O)N[C@@H](CC(C)C)C(=O)N[C@@H](C[C@@H]1CCNC1=O)C(=O)COC(F)(F)F` [Compound 177, N1-(2-(methoxymethyl)phenyl)-N2-((S)-4-methyl-1-oxo-1-(((S)-3-oxo-1-((S)-2-oxopyrrolidin-3-yl)-4-(trifluoromethoxy)butan-2-yl)amino)pentan-2-yl)oxalamide], the EC50 is below 0.05 µM. Still for that read-out and setting: then `CC(C)(C)C[C@H](NC(=O)C(=O)NC1CC(F)(F)C1)C(=O)N[C@@H](C[C@@H]1CCNC1=O)C(=O)COC(F)(F)F` [Compound 179, Nl-(3,3-difluorocyclobutyl)-N2-((S)-4,4-dimethyl-1-oxo-1-(((S)-3-oxo-1-((S)-2-oxopyrrolidin-3-yl)-4-(trifluoromethoxy)butan-2-yl)amino)pentan-2-yl)oxalamide], with below 0.05 µM. Take `CC(C)C[C@H](NC(=O)C(=O)NC(C)(C)C)C(=O)N[C@@H](C[C@@H]1CCNC1=O)C(=O)COC(F)(F)F` [Compound 180, N1-(tert-butyl)-N2-((S)-4-methyl-1-oxo-1-(((S)-3-oxo-1-((S)-2-oxopyrrolidin-3-yl)-4-(trifluoromethoxy)butan-2-yl)amino)pentan-2-yl)oxalamide]: the half-maximal effective concentration (EC50) is below 0.05 µM. As for `CC(C)(C)NC(=O)C(=O)NC(CC1CCOCC1)C(=O)N[C@@H](C[C@@H]1CCNC1=O)C(=O)COC(F)(F)F` (stereo partly drawn) [Compound 181, N1-(tert-butyl)-N2-(l-oxo-1-(((S)-3-oxo-l-((S)-2-oxopyrrolidin-3-yl)-4-(trifluoromethoxy)butan-2-yl)amino)-3-(tetrahydro-2H-pyran-4-yl)propan-2-yl)oxalamide], the EC50 fell in the range of 0.2 to 0.5 µM. As to `O=C(NC1CC(F)(F)C1)C(=O)N[C@@H](Cc1ccccc1)C(=O)N[C@@H](C[C@@H]1CCNC1=O)C(=O)COC(F)(F)F` [Compound 182, N1-(3,3-difluorocyclobutyl)-N2-((S)-1-oxo-1-(((S)-3-oxo-1-((S)-2-oxopyrrolidin-3-yl)-4-(trifluoromethoxy)butan-2-yl)amino)-3-phenylpropan-2-yl)oxalamide], the EC50 was below 0.05 µM.

As for `O=C(NC(CC1CCOCC1)C(=O)N[C@@H](C[C@@H]1CCNC1=O)C(=O)COC(F)(F)F)c1cc(-c2ccccc2F)on1` (stereo partly drawn) [Compound 183, 5-(2-fluorophenyl)-N-(1-oxo-1-(((S)-3-oxo-1-((S)-2-oxopyrrolidin-3-yl)-4-(trifluoromethoxy)butan-2-yl)amino)-3-(tetrahydro-2H-pyran-4-yl)propan-2-yl)isoxazole-3-carboxamide], the EC50 is below 0.05 µM. As for `O=C(N[C@@H](CC1CC1)C(=O)N[C@@H](C[C@@H]1CCNC1=O)C(=O)COC(F)(F)F)c1nnc(-c2ccc(F)cc2)o1` [Compound 184, N-((S)-3-cyclopropyl-1-oxo-1-(((S)-3-oxo-1-((S)-2-oxopyrrolidin-3-yl)-4-(trifluoromethoxy)butan-2-yl)amino)propan-2-yl)-5-(4-fluorophenyl)-1,3,4-oxadiazole-2-carboxamide], the EC50 was 0.05 to 0.2 µM. The same measure, in the same setting: then `CC(C)C[C@H](NC(=O)C(=O)Nc1c(C2CC2)cccc1C1CC1)C(=O)N[C@@H](C[C@@H]1CCNC1=O)C(=O)COC(F)(F)F` [Compound 185, N1-(2,6-dicyclopropylphenyl)-N2-((S)-4-methyl-1-oxo-1-(((S)-3-oxo-1-((S)-2-oxopyrrolidin-3-yl)-4-(trifluoromethoxy)butan-2-yl)amino)pentan-2-yl)oxalamide], with below 0.05 µM.

Regarding `Cc1ccc(C2(NC(=O)C(=O)N[C@@H](CC(C)C)C(=O)N[C@@H](C[C@@H]3CCNC3=O)C(=O)COC(F)(F)F)CC2)cc1` [Compound 186, N1-((S)-4-methyl-1-oxo-1-(((S)-3-oxo-1-((S)-2-oxopyrrolidin-3-yl)-4-(trifluoromethoxy)butan-2-yl)amino)pentan-2-yl)-N2-(l-(p-tyolyl)-cyclopropyl)oxalamide], the EC50 was below 0.05 µM. Regarding `CC(C)C[C@H](NC(=O)c1cc2ccncc2[nH]1)C(=O)N[C@@H](C[C@@H]1CCNC1=O)C(=O)COC(F)(F)F` [Compound 187, N-((S)-4-methyl-1-oxo-1-(((S)-3-oxo-1-((S)-2-oxopyrrolidin-3-yl)-4-(trifluoromethoxy)butan-2-yl)amino)pentan-2-yl)-1H-pyrrolo[2,3-c]pyridine-2-carboxamide], the 50% effective concentration (EC50) lay in the range of 0.05 to 0.2 µM. In the case of `COc1cccc(NC(=O)C(=O)N[C@@H](CC(C)C)C(=O)N[C@@H](C[C@@H]2CCNC2=O)C(=O)COC(F)(F)F)c1` [Compound 188, N1-(3-methoxyphenyl)-N2-((S)-4-methyl-1-oxo-1-(((S)-3-oxo-1-((S)-2-oxopyrrolidin-3-yl)-4-(trifluoromethoxy)butan-2-yl)amino)pentan-2-yl)oxalamide], the EC50 is below 0.05 µM.

The record behind these values is US11708348B2, “Protease inhibitors for treatment of coronavirus infections” (The Scripps Research Institute, priority 2021, dated 2023).
